# Measurements from patent publication US20010024657A1, “Pharmaceutical oral patch for controlled release of pharmaceutical agents in the oral cavity” (priority 1997, published 2001).
# “Also recorded” adds a separate entry of the source.
# Tests used:
# [1] = cited from earlier work; for solubility in buffer (in words): neutral to slightly basic, pH 7-8, high buffering capacity
# [2] = In vivo release of clotrimazole from patches on the upper teeth, measured in saliva of volunteers; parameters: species or system human; details: total dose of 10 mg clotrimazole from patches
# Method: Each volunteer attached two pharmaceutical oral patches of 5 mg clotrimazole to the buccal side of the upper teeth. No food or drink was allowed during the tests. Saliva samples were expectorated at given time intervals and tested for clotrimazole by HPLC. The patch was affixed to the tooth by using a drop of a solution of Eudragit S™ in ethanol.
# The in vivo release from the patches made from three formulations of differing molar ratios of NaOH were tested in vivo. Formulation 193-5 has a low level of NaOH (percent molar ratio of 11.5%) and the patch made therefrom is expected to release drug even more slowly than the patch made from formulation 193-34.
SMILES,solubility in water (in words) [1],time of clinically significant levels of clotrimazole in saliva [2],solubility in buffer (in words) [1]
"Clc1ccccc1C(c1ccccc1)(c1ccccc1)n1ccnc1 [clotrimazole, Clotrimazole]",poorly water soluble,at least 6 hours,
CC(C(=O)O)c1ccc(-c2ccccc2)c(F)c1 (stereo not drawn) [flurbiprofen],poorly soluble in water; also recorded: only slightly soluble,,soluble in buffer
O=C([O-])c1ccccc1O.[Na+] [sodium salicylate],very soluble,,very soluble
